Assay results reported in PubChem BioAssay (NCI).
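1) Cells in 96-well plates. 2) Compound, 48 h, 5 concentrations. 3) Linear interpolation between surrounding doses. 4) Unreached endpoint = highest concentration. GI50 = concentration required for 50% inhibition of growth. TGI denotes the concentration required for complete inhibition of growth.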

Key:
Assay in all cases: NCI anticancer screen, dose series, 48 h
ACHN renal = test system: ACHN renal
COLO 205 colon = test system: COLO 205 colon
HCC-2998 colon = test system: HCC-2998 colon
NCI-H23 lung = test system: NCI-H23 lung
RPMI-8226 leukemia = test system: RPMI-8226 leukemia
SF-268 CNS = test system: SF-268 CNS
TK-10 renal = test system: TK-10 renal
UO-31 renal = test system: UO-31 renal
U251 CNS = test system: U251 CNS
MDA-MB-231 breast = test system: MDA-MB-231 breast

SMILES | TGI (ACHN renal) [µM] | TGI (COLO 205 colon) [µM] | GI50 (HCC-2998 colon) [µM] | TGI (HCC-2998 colon) [µM] | TGI (NCI-H23 lung) [µM] | TGI (RPMI-8226 leukemia) [µM] | TGI (SF-268 CNS) [µM] | GI50 (TK-10 renal) [µM] | TGI (TK-10 renal) [µM] | TGI (UO-31 renal) [µM] | TGI (U251 CNS) [µM] | GI50 (COLO 205 colon) [µM] | GI50 (MDA-MB-231 breast) [µM] | TGI (MDA-MB-231 breast) [µM] | GI50 (SF-268 CNS) [µM] | GI50 (ACHN renal) [µM] | GI50 (NCI-H23 lung) [µM] | GI50 (RPMI-8226 leukemia) [µM] | GI50 (U251 CNS) [µM] | GI50 (UO-31 renal) [µM]
CC1(C)OC2OC(COC(=O)C(c3ccccc3)c3ccccc3)C3OC(C)(C)OC3C2O1 (stereo not given) | > 100 | > 100 | > 100 | > 100 | > 100 | 42.7 | > 100 | > 100 | > 100 | > 100 |  |  |  |  |  |  |  |  |  | 
C1=C(c2ccccc2)C(OC2Oc3ccccc3C=C2c2ccccc2)Oc2ccccc21 (stereo not given) | > 100 | > 100 |  | > 100 | > 100 | > 100 | > 100 |  | > 100 | > 100 | 45.1 |  |  |  |  |  |  |  |  | 
C1CCN2CC3CONC3C2C1 (stereo not given) | > 100 | > 100 |  | > 100 | > 100 | > 100 | > 100 |  | > 100 | > 100 | > 100 |  |  |  |  |  |  |  |  | 
O=c1[nH]c(=O)n(C2CC(O)C(O)C(CO)O2)cc1F (stereo not given) | > 100 | > 100 |  | > 100 | > 100 | > 100 | > 100 |  | > 100 | > 100 | > 100 |  |  |  |  |  |  |  |  | 
O=C(O)C1=C(C(=O)O)Oc2ccccc2O1 | > 100 | > 100 |  | > 100 | > 100 |  | > 100 |  | > 100 | > 100 | > 100 |  |  |  |  |  |  |  |  | 
CC(C)=CC(=O)CC(=O)C(=O)NCCNC(=O)C(=O)CC(=O)C=C(C)C | > 50 | > 50 |  | > 50 | > 50 | > 50 | > 50 |  | > 50 | > 50 | > 50 |  |  |  |  |  |  |  |  | 
Cc1c(C)c2ccc(OC(C)C(=O)O)cc2oc1=O (stereo not given) | > 100 | > 100 |  | > 100 | > 100 | > 100 | > 100 |  | > 100 | > 100 | > 100 |  |  |  |  |  |  |  |  | 
O=C(Nc1ccc(Br)cc1)Nc1cccc(Br)c1 |  | > 100 |  |  |  |  | > 100 |  |  |  |  | 4.1 | 30.5 | > 100 | > 100 |  |  |  |  | 
CC1=C(C(=O)CC(=O)C(=O)Nc2ccccc2C)Sc2ccccc2N1 | > 100 | > 61.6 |  | > 100 | > 100 | > 65.5 | > 100 |  | > 100 | > 100 | > 100 |  |  |  |  |  |  |  |  | 
Cc1cc(OC(=O)c2c(C)cc(OC(=O)c3c(C)cc(O)cc3O)cc2O)cc(O)c1C(=O)O | > 100 | > 100 |  | > 100 | > 100 | > 100 | > 100 |  | > 100 | > 100 | > 100 |  |  |  |  |  |  |  |  | 
CC1(C)CC(O)CC(C)(C)N1.CC1(C)CC(O)CC(C)(C)N1.CC1(C)CC(O)CC(C)(C)N1.CC1(C)CC(O)CC(C)(C)N1.Cl.[Ti] | > 100 | > 100 | > 100 | > 100 | > 100 | > 100 | > 100 | > 100 | > 100 | > 100 | > 100 | > 100 |  |  | > 100 | > 100 | > 100 | > 100 | > 100 | > 100
CCN(CC)CCCNc1c2ccc(Cl)cc2nc2ccc(OC)cc12 |  | 2.01 |  |  |  | 2.83 | 3.53 | 1.69 | 4.83 | 4.83 |  | 0.0398 |  |  | 0.0618 |  |  | 0.042 |  | 1.63
CCOC(=O)COc1cccc2occc(=O)c12 | > 100 | > 100 |  | > 100 | > 100 | > 100 | > 100 |  | > 100 | > 100 | > 100 |  |  |  |  |  |  |  |  | 
Nc1nc(-c2ccccc2)cc(-c2cc(Cl)ccc2O)n1 | 72.3 | > 100 |  | > 100 | > 100 | > 100 | > 100 |  | > 100 | > 100 | > 100 |  |  |  |  |  |  |  |  | 
O=S(=O)(Cc1ccccc1)SCc1ccccc1 | > 100 | 34.3 |  | 55.2 | 52.7 | 61.6 | > 100 |  | 99.2 | > 100 | 66.2 |  |  |  |  |  |  |  |  | 
CC(=O)OC1COC(Oc2c(C)c3c4c(c2O)[C@@H](C)CC[C@@H]4[C@@H](C)C[C@H]3C=C(C)C)C(O)C1O (stereo not given in full) | 36.8 | > 100 | 15.1 | 31.3 | 33.2 | 39.5 | 38.5 | 16.3 | 31 | > 100 | 41.6 | 26.4 |  |  | 15.4 | 18.5 | 16.6 | 16.6 | 19.5 | 25.1
